The source of these data is PubChem BioAssay (NCI).

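1) Cells in 96-well plates. 2) Compound, 48 h, 5 concentrations. 3) Linear interpolation between surrounding doses. 4) Unreached endpoint = highest concentration. GI50 is the concentration that inhibits growth by half. Definition used: TGI = concentration required for complete inhibition of growth.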 Some results are limits rather than exact numbers.

Among the test systems are HOP-62 NSCLC; HOP-92 NSCLC; RPMI-8226 leukemia; SW-620 colon; MDA-MB-435; SNB-75 CNS; K-562 leukemia; OVCAR-8 ovarian; HCC-2998 colon; HT29 colon.
Experiment in all cases: growth of human tumour cells (NCI), 48 h

In the case of `COc1ccc(Cn2c(N)c(S(=O)(=O)c3ccc(Cl)cc3)c3nc(C#N)c(C#N)nc32)cc1`, the GI50 in the test with HOP-62 NSCLC was above 50 µM; in the test with HOP-92 NSCLC it was 11.1 µM; in the test with RPMI-8226 leukemia it was 22.5 µM; in the test with SW-620 colon, above 50 µM; with MDA-MB-435, above 50 µM; in the test with SNB-75 CNS it was above 50 µM. Moreover, the GI50 with K-562 leukemia is above 50 µM; in the test on OVCAR-8 ovarian, 7.55 µM. Moreover, the TGI with HOP-62 NSCLC, in the test with HOP-92 NSCLC, in the test on RPMI-8226 leukemia, in the test on SW-620 colon, in the test with MDA-MB-435 and with SNB-75 CNS was above 50 µM each time. The TGI with K-562 leukemia and in the test on OVCAR-8 ovarian was above 50 µM in each case.

`CCOC(=O)c1c(-c2ccc(OC)cc2)c(C#N)c2c(C#N)c(N)nn2c1N`: the GI50 in the test on HOP-62 NSCLC was 3.32 µM; with RPMI-8226 leukemia it was 2.31 µM; in the test with HCC-2998 colon, 7.64 µM; in the test on SW-620 colon, 5.62 µM; in the test on MDA-MB-435, 0.613 µM; with SNB-75 CNS, 1.84 µM. Besides, the GI50 with HT29 colon was 3.98 µM; in the test with K-562 leukemia it was 1.18 µM; in the test on OVCAR-8 ovarian it was 4.27 µM. The TGI was 22.1 µM with HOP-62 NSCLC; above 100 µM with RPMI-8226 leukemia; above 100 µM in the test with HCC-2998 colon; above 100 µM in the test with SW-620 colon; 2.89 µM in the test on MDA-MB-435; 7.59 µM in the test with SNB-75 CNS. Also, the TGI with HT29 colon, in the test on K-562 leukemia and in the test on OVCAR-8 ovarian was above 100 µM throughout.

For `CN(C)c1ncnc2c1ncn2CCn1cnc2c(N(C)C)ncnc21`, the TGI in the test on HOP-62 NSCLC, in the test with HOP-92 NSCLC, with RPMI-8226 leukemia, in the test with HCC-2998 colon, in the test with SW-620 colon and in the test with MDA-MB-435 was above 100 µM throughout. The TGI in the test with SNB-75 CNS, with HT29 colon and in the test on OVCAR-8 ovarian was above 100 µM throughout.

`C[C@H]1CN[C@@H]2[C@@H](C)[C@H]3[C@@H](C[C@H]4[C@@H]5CC[C@H]6C[C@@H](N)CC[C@]6(C)[C@H]5CC[C@]34C)O[C@@]2(O)C1`: the TGI with HOP-92 NSCLC is 11.4 µM; in the test on HCC-2998 colon, 6.23 µM; in the test on SW-620 colon, 6.23 µM; in the test on MDA-MB-435, 3.71 µM; in the test with SNB-75 CNS, 9.52 µM; with HT29 colon, 3.9 µM. The figures for the TGI with K-562 leukemia and in the test with OVCAR-8 ovarian were 41.9 µM and 4.78 µM, respectively.

For `O=C(Nc1ccc(Cl)c(C(F)(F)F)c1)c1ccc(NC2=C(Cl)C(=O)N(Cc3ccccc3)C2=O)cc1`, the GI50 is 22.4 µM in the test on HOP-62 NSCLC; 4.34 µM with HOP-92 NSCLC; 2.56 µM in the test on RPMI-8226 leukemia; 19.1 µM in the test on MDA-MB-435; 13.8 µM with SNB-75 CNS; 7.47 µM in the test on HT29 colon. Also, the figures for the GI50 in the test on K-562 leukemia and with OVCAR-8 ovarian were 3.49 µM and 3.66 µM, respectively. Also, the TGI with HOP-62 NSCLC was 46.1 µM; with HOP-92 NSCLC, 14.7 µM; in the test on RPMI-8226 leukemia it was 6.58 µM; in the test with MDA-MB-435, 36.8 µM; in the test with SNB-75 CNS it was 33.9 µM; with HT29 colon it was above 100 µM. The TGI is 7.24 µM with K-562 leukemia and above 100 µM with OVCAR-8 ovarian.

For the compound `Cc1cc2cc3c(=O)[nH]c(=O)[nH]c3nc2cc1C`, the TGI was above 100 µM in the test with HOP-62 NSCLC; above 100 µM in the test on HOP-92 NSCLC; above 100 µM in the test on RPMI-8226 leukemia; above 100 µM in the test on SW-620 colon; above 100 µM in the test with MDA-MB-435; 90 µM in the test with SNB-75 CNS. The TGI in the test with HT29 colon, with K-562 leukemia and in the test on OVCAR-8 ovarian was above 100 µM in each case.

With `O=[P@@]1(c2ccccc2)O[C@H](COCc2ccccc2)[C@@H](OCc2ccccc2)[C@H](OCc2ccccc2)[C@H]1NCc1ccccc1`, the GI50 is 3.77 µM with HOP-62 NSCLC; 2.97 µM with RPMI-8226 leukemia; 4.26 µM with HCC-2998 colon; 3.52 µM in the test on SW-620 colon; 2.92 µM with MDA-MB-435; 2.08 µM in the test on SNB-75 CNS. For the same compound, the figures for the GI50 with HT29 colon, with K-562 leukemia and with OVCAR-8 ovarian were 3.21 µM, 2.86 µM and 3.24 µM, respectively. The TGI in the test on HOP-62 NSCLC is above 100 µM; in the test with RPMI-8226 leukemia, above 100 µM; in the test with HCC-2998 colon, above 100 µM; in the test with SW-620 colon it was above 100 µM; with MDA-MB-435 it was above 100 µM; with SNB-75 CNS it was 47.5 µM. Also, the TGI in the test on HT29 colon, in the test on K-562 leukemia and with OVCAR-8 ovarian was above 100 µM throughout.

Turning to `CC1CCN(C(=O)OCc2nc3nc(Cl)nc(N4CCOCC4)c3[nH]2)CC1`, the GI50 with HOP-62 NSCLC was 1.76 µM; in the test on HOP-92 NSCLC, 0.0497 µM; in the test with HCC-2998 colon it was 1.69 µM; in the test with SW-620 colon it was 0.551 µM; in the test on MDA-MB-435, 0.835 µM; with SNB-75 CNS, 1.06 µM. The GI50 in the test on HT29 colon was 0.831 µM; with K-562 leukemia, 0.434 µM; in the test on OVCAR-8 ovarian it was 1.9 µM. The TGI in the test on HOP-62 NSCLC was 5 µM; in the test with HOP-92 NSCLC it was 1.06 µM; in the test on HCC-2998 colon, 3.29 µM; with SW-620 colon it was 2.07 µM; in the test with MDA-MB-435, 2.24 µM; with SNB-75 CNS, 2.29 µM. Moreover, the TGI with HT29 colon came to 6.38 µM; in the test with K-562 leukemia, 13.6 µM; in the test on OVCAR-8 ovarian, 9.02 µM.

Take `COc1ccc(-c2nnc(N3CCN(C(=O)CN4CCN(c5ccccc5)CC4)CC3)nc2-c2ccc(OC)cc2)cc1`: the GI50 with HOP-62 NSCLC is 13 µM; in the test on HOP-92 NSCLC it was 3.49 µM; in the test with RPMI-8226 leukemia, 2.06 µM; in the test with SW-620 colon it was 5.26 µM; in the test on MDA-MB-435 it was 6.09 µM; in the test on SNB-75 CNS, 14.4 µM. In addition, the GI50 with K-562 leukemia is 2.53 µM; in the test with OVCAR-8 ovarian it was 7.15 µM. In addition, the TGI is 42.7 µM in the test with HOP-62 NSCLC; 24 µM in the test with HOP-92 NSCLC; 5.16 µM in the test on RPMI-8226 leukemia; above 100 µM in the test on SW-620 colon; above 100 µM in the test with MDA-MB-435; 48.7 µM in the test with SNB-75 CNS. Besides, the TGI with K-562 leukemia and in the test with OVCAR-8 ovarian was above 100 µM in each case.
